The record followed here is US11071731B2, “Allosteric modulators of the mu opioid receptor” (Chiromics, LLC, priority 2017, dated 2021).

Assay [1] addresses T1, mu opioid receptor (MOR) (Homo sapiens, UniProt P35372). Description: Hit Hunter cAMP signaling assay (adenylyl cyclase inhibition), PAM mode with EC20 endomorphin-1. Type of assay: cell-based.
Assay [2] concerns the target T1, mu opioid receptor (MOR). Description: PathHunter β-arrestin recruitment assay, PAM mode with EC20 endomorphin-1. Type of assay: cell-based. In a few lines:
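β-Arrestin recruitment to the receptor was tracked by chemiluminescent β-galactosidase activity from complementing fragments (ED on receptor, EA on β-arrestin). Per-compound outputs were EC50 and percent maximal response.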
(In general: Arrestin recruitment assays detect the binding of arrestin to an activated receptor.)

The mark [3] stands for this setting: cAMP EC50, adenylyl cyclase inhibition.
Where [4] appears, read: maximal response for adenylyl cyclase inhibition.
[5] abbreviates: maximal response for β-arrestin recruitment.
[6] abbreviates: β-arrestin recruitment, read-out: β-arr. EC50.
The mark [7] stands for this setting: adenylyl cyclase inhibition, read-out: cAMP EC50.

T1 sequence (P35372 whole entry): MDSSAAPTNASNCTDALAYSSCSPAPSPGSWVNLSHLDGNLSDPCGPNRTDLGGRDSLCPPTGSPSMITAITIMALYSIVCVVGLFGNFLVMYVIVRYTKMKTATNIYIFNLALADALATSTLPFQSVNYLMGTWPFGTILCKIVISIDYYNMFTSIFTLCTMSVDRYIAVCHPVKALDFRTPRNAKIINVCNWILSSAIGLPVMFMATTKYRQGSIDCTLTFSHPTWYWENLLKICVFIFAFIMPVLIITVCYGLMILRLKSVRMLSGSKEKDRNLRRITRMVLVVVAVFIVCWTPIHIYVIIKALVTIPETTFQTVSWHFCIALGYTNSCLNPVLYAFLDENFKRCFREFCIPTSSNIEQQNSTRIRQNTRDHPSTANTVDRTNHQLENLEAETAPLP

Usually EC50 stands for the concentration at which the effect is half-maximal. For `COc1ccc(C2CCCCN2c2cncc(Cl)n2)cc1Br` (stereo not drawn) [compound 229], the half-maximal effective concentration (EC50) on mu opioid receptor (MOR) [1] (setting [3]) and on mu opioid receptor (MOR) [2] (setting [6]) was more than 2100 nM in each case. Moreover, the “cAMP Max. Resp.” value on mu opioid receptor (MOR) [1] (setting [4]) is on record as “F (F represents a maximal response of > 60%)”. Moreover, the “β-arr Max. Resp.” value on mu opioid receptor (MOR) [2] (setting [5]) was “F (F represents a maximal response of > 60%)”.
For `Fc1cnc(Cl)nc1N1CCCCC1c1cc(F)c(F)c(F)c1` (stereo not drawn) [compound 327], the EC50 on mu opioid receptor (MOR) [1] (setting [3]) and at mu opioid receptor (MOR) [2] (setting [6]) was less than 700 nM in each case. For the same compound, the “cAMP Max. Resp.” value at mu opioid receptor (MOR) [1] (setting [4]) was “D (D represents a maximal response of < 40%)”. Also, on mu opioid receptor (MOR) [2] (setting [5]), the “β-arr Max. Resp.” value was “D (D represents a maximal response of < 40%)”.
For the compound `Fc1cnc(Cl)nc1N1CCC(F)CC1c1cccc(C(F)(F)F)c1` (stereo not drawn) [compound 197], the half-maximal effective concentration (EC50) on mu opioid receptor (MOR) [1] (setting [3]) and on mu opioid receptor (MOR) [2] (setting [6]) was 700 to 2100 nM in each case. The “cAMP Max. Resp.” value on mu opioid receptor (MOR) [1] (setting [4]) is “F (F represents a maximal response of > 60%)”. For the same compound, the “β-arr Max. Resp.” value on mu opioid receptor (MOR) [2] (setting [5]) is given as “F (F represents a maximal response of > 60%)”.
Take `Fc1cccc(C2CCCCN2Cc2cc(Cl)ccc2F)n1` (stereo not drawn) [compound 171]: the concentration giving a half-maximal response (EC50) on mu opioid receptor (MOR) [1] (setting [3]) and at mu opioid receptor (MOR) [2] (setting [6]) was 700 to 2100 nM in each case. In addition, the “cAMP Max. Resp.” value at mu opioid receptor (MOR) [1] (setting [4]) is “E (E represents a maximal response of 40-60%)”. Also, the “β-arr Max. Resp.” value at mu opioid receptor (MOR) [2] (setting [5]) is given as “F (F represents a maximal response of > 60%)”.
For the compound `COc1ccc(C2CCCCN2c2nc(Cl)ncc2OC)cc1Br` (stereo not drawn) [compound 235], the EC50 on mu opioid receptor (MOR) [1] (setting [3]) and on mu opioid receptor (MOR) [2] (setting [6]) was more than 2100 nM in each case. For the same compound, the “cAMP Max. Resp.” value at mu opioid receptor (MOR) [1] (setting [4]) was “F (F represents a maximal response of > 60%)”. Moreover, the “β-arr Max. Resp.” value at mu opioid receptor (MOR) [2] (setting [5]) is given as “F (F represents a maximal response of > 60%)”.
On to `CCCC1(F)CCCN(c2nc(Cl)ncc2F)C1c1cccc(C(F)(F)F)c1` (stereo not drawn) [compound 424], for which the EC50 at mu opioid receptor (MOR) [1] (setting [7]) and on mu opioid receptor (MOR) [2] (setting [6]) was more than 2100 nM throughout. The “cAMP Max. Resp.” value on mu opioid receptor (MOR) [1] (maximal response, adenylyl cyclase inhibition) was “D (D represents a maximal response of < 40%)”. Moreover, at mu opioid receptor (MOR) [2] (maximal response, β-arrestin recruitment), the “β-arr Max. Resp.” value is “F (F represents a maximal response of > 60%)”.
`COc1cc(C2CCCCN2S(=O)(=O)c2ccc(Cl)cc2)ccc1Br` (stereo not drawn) [compound 42]: the EC50 was more than 2100 nM at mu opioid receptor (MOR) [1] (setting [7]) and 700 to 2100 nM at mu opioid receptor (MOR) [2] (setting [6]). Also, at mu opioid receptor (MOR) [1] (setting [4]), the “cAMP Max. Resp.” value is “D (D represents a maximal response of < 40%)”. The “β-arr Max. Resp.” value on mu opioid receptor (MOR) [2] (setting [5]) is on record as “E (E represents a maximal response of 40-60%)”.
As for `Cc1cnc(C2CCCCN2c2nc(Cl)ncc2F)o1` (stereo not drawn) [compound 364], the EC50 at mu opioid receptor (MOR) [1] (setting [3]) and on mu opioid receptor (MOR) [2] (setting [6]) was less than 700 nM throughout. Further, at mu opioid receptor (MOR) [1] (setting [4]), the “cAMP Max. Resp.” value was “D (D represents a maximal response of < 40%)”. The “β-arr Max. Resp.” value at mu opioid receptor (MOR) [2] (setting [5]) is listed as “D (D represents a maximal response of < 40%)”.
Turning to `Fc1cnc(Cl)nc1N1CCCCC1c1cncc(C(F)(F)F)c1` (stereo not drawn) [compound 376], the EC50 at mu opioid receptor (MOR) [1] (setting [3]) and on mu opioid receptor (MOR) [2] (setting [6]) was less than 700 nM in each case. Also, on mu opioid receptor (MOR) [1] (setting [4]), the “cAMP Max. Resp.” value is reported as “D (D represents a maximal response of < 40%)”. In addition, the “β-arr Max. Resp.” value at mu opioid receptor (MOR) [2] (setting [5]) was “D (D represents a maximal response of < 40%)”.
As to `O=S(=O)(c1ccc(Cl)cc1)N1CCCCC1c1ccnc(C(F)(F)F)c1` (racemic) [compound 57], the “cAMP Max Resp.” value on mu opioid receptor (MOR) [1] (adenylyl cyclase inhibition, activity switching by MOR PAMs) was “E (E represents a maximal response of 40-60%)”. In addition, the EC50 on mu opioid receptor (MOR) [1] (adenylyl cyclase inhibition, activity switching by MOR PAMs, read-out: cAMP EC50) was more than 2100 nM; on mu opioid receptor (MOR) [1] (setting [7]), more than 2100 nM; on mu opioid receptor (MOR) [2] (β-arrestin recruitment, activity switching by MOR PAMs, read-out: β-arrestin EC50), more than 2100 nM; on mu opioid receptor (MOR) [2] (setting [6]), more than 2100 nM. Also, the “cAMP Max. Resp.” value on mu opioid receptor (MOR) [1] (setting [4]) is recorded as “E (E represents a maximal response of 40-60%)”. Also, on mu opioid receptor (MOR) [2] (setting [5]), the “β-arr Max. Resp.” value was “F (F represents a maximal response of > 60%)”. Moreover, on mu opioid receptor (MOR) [2] (β-arrestin recruitment, activity switching by MOR PAMs), the “β-arrestin Max Response” value is given as “F (F represents a maximal response of >60%)”.
`FC(F)(F)c1cccc(C2CCCCN2Cc2cccc(Cl)n2)n1` (stereo not drawn) [compound 165]: the EC50 at mu opioid receptor (MOR) [1] (setting [3]) was 700 to 2100 nM; at mu opioid receptor (MOR) [2] (setting [6]), more than 2100 nM. For the same compound, at mu opioid receptor (MOR) [1] (setting [4]), the “cAMP Max. Resp.” value is “F (F represents a maximal response of > 60%)”. In addition, the “β-arr Max. Resp.” value on mu opioid receptor (MOR) [2] (setting [5]) is “F (F represents a maximal response of > 60%)”.
`O=S(=O)(c1ccc(Cl)cc1)N1CCCCC1c1ccc(Cl)c(C(F)(F)F)c1` (single isomer, unassigned) [compound 69]: the EC50 was 700 to 2100 nM at mu opioid receptor (MOR) [1] (setting [7]) and more than 2100 nM at mu opioid receptor (MOR) [2] (setting [6]). At mu opioid receptor (MOR) [1] (setting [4]), the “cAMP Max. Resp.” value was “D (D represents a maximal response of < 40%)”. At mu opioid receptor (MOR) [2] (setting [5]), the “β-arr Max. Resp.” value is reported as “F (F represents a maximal response of > 60%)”.
With `Fc1cnc(Cl)nc1N1CCCCC1c1cccnc1` (stereo not drawn) [compound 373], the EC50 at mu opioid receptor (MOR) [1] (setting [3]) and at mu opioid receptor (MOR) [2] (setting [6]) was less than 700 nM in each case. Moreover, at mu opioid receptor (MOR) [1] (setting [4]), the “cAMP Max. Resp.” value is listed as “D (D represents a maximal response of < 40%)”. Moreover, the “β-arr Max. Resp.” value at mu opioid receptor (MOR) [2] (setting [5]) was “D (D represents a maximal response of < 40%)”.
On to `Fc1cnc(Cl)nc1N1CCCCC1c1cccc2ccncc12` (stereo not drawn) [compound 286], for which the EC50 on mu opioid receptor (MOR) [1] (setting [3]) and at mu opioid receptor (MOR) [2] (setting [6]) was more than 2100 nM each time. The “cAMP Max. Resp.” value at mu opioid receptor (MOR) [1] (setting [4]) was “D (D represents a maximal response of < 40%)”. For the same compound, on mu opioid receptor (MOR) [2] (setting [5]), the “β-arr Max. Resp.” value was “D (D represents a maximal response of < 40%)”.
